Tests used:
[1] = system: cultured cortical neurons; experiment: Antagonism of NMDA-induced neurotoxicity in cultured cortical neurons (LDH release); assay type: cell-based, mouse (Swiss-Webster); details: 500 μM NMDA, 30 min exposure, LDH 24 h later
Protocol: Antagonism of NMDA-induced Neurotoxicity in Cultured Neurons
Preparation of Cultured Cortical Neurons
Pregnant, Swiss-Webster mice were obtained from Taconic Farms (Germantown, New York) and sacrificed 16 days post conception. Fetuses were removed and placed in a sterile dish containing Hank's balanced salt solution (HBSS), pH 7.4. Brain cortices were dissected, meninges were removed, the tissue was minced and placed into a solution of HBSS containing 0.25% (w/v) trypsin at 37° C. for 15 minutes. Tissue was then triturated with a sterile pasteur pipet, diluted with minimal essential media (Gibco 330-1430), pH 7.4, supplemented with 10% horse serum, 10% fetal calf serum, 2 mM 1-glutamine, 21 mM d-glucose, 2.2 g/L sodium bicarbonate, 1000 U/mL penicillin, and 1,000 μg/mL streptomycin. Cells were plated onto Falcon primaria 96 well plates at a final density of 50,000 cells/well and incubated at 37 °C in the presence of 5% (v/v) carbon dioxide. After 5 days, plating media was replaced with maintenance media containing minimal essential media (Gibco 330-1430), pH 7.4, supplemented with 10% horse serum, […], 21 mM d-glucose, 2.2 g/L sodium bicarbonate, 1,000 U/mL penicillin, 1,000 μg/mL streptomycin, and 10 μM cytosine arabinoside. On days 7 and 10, media was replaced with maintenance media as above lacking the cytosine arabinoside. Experiments were conducted on day 13.
Neuroprotection Assessment
Day 13 cultured cortical neurons were washed twice with minimal essential media, pH 7.4 and then exposed for 30 minutes to 500 μM N-methyl-D-aspartic acid (NMDA) with or without varying concentrations of test agents. […] MK-801 and test agents were prepared in minimal essential media supplemented with 21 mM d-glucose and 2.2 g/L sodium bicarbonate (MEM). After 30 minutes, media was replaced with MEM alone. Exposure of neurons to test agents was limited to the NMDA treatment period. Twenty-four hours after removal of NMDA, an aliquot of media from each well was removed for assessment of cell injury by determining lactate dehydrogenase (LDH) activity by the method of Wroblewski and LaDue Proc. Soc. Exp. Biol. Med. 1955, 90, 210-213. The results are expressed as an IC50 (in nM) value (concentration causing 50% inhibition) for the antagonism of NMDA--inducedneurotoxicity. Table 3 summarizes the results obtained from the testing of representative compounds of the invention in the [^3 H]TCP radioreceptor assay as well as in the antagonism of NMDA-induced neurotoxicity in cultured neurons.

PCP receptor = experiment: [3H]TCP radioreceptor assay (binding to PCP recognition sites); set-up: species or system rat (male Sprague-Dawley, whole brain); details: [3H]TCP approx. 1 nM, rat brain membranes, mean of at least two determinations
Method in brief: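 Rat whole-brain membranes (Tris-HCl, pH 7.7), 0.5 mg protein/tube, incubated with ~1 nM [3H]TCP for 25 min at room temperature; non-specific binding defined with 100 μM PCP. Bound ligand collected by filtration and counted by scintillation; Ki from at least two determinations, or % inhibition at 10 μM.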

| SMILES | Ki (PCP receptor) [nM] | also measured |
| --- | --- | --- |
| CC1C2c3ccccc3C(c3cccc[n+]32)C1(c1ccoc1)c1ccoc1 (single isomer, unassigned) [181(c), 6,11-ethano-12,12-di(3-furyl)-13-methyl-6,11-dihydrobenzo[b]quinolizinium hexafluorophosphate] | 6.36 | IC50 [1]: 11.4 nM |
| CC1C2c3ccccc3C(c3cccc[n+]32)C1(c1ccoc1)c1ccoc1 (single isomer, unassigned) [181(d), 6,11-ethano-12,12-di(3-furyl)-13-methyl-6,11-dihydrobenzo[b]quinolizinium hexafluorophosphate] | 6.15 | IC50 [1]: 55 nM |
| [O-][Cl+3]([O-])([O-])[O-].c1ccc2c(c1)C1CC(c3ccoc3)(c3ccn[nH]3)C2c2cccc[n+]21 (single isomer, unassigned) [185(a), 6,11-ethano-12-(3-furyl)-12-(5-pyrazolyl]-6,11-dihydrobenzo[b]quinolizinium perchlorate] | 4.55 | IC50 ([1]; Mus musculus, Cortical neurone): 32.6 nM |
| [O-][Cl+3]([O-])([O-])[O-].c1ccc2c(c1)C1CC(c3ccoc3)(c3ccn[nH]3)C2c2cccc[n+]21 (single isomer, unassigned) [185(b), 6,11-ethano-12-(3-furyl)-12-(5-pyrazolyl]-6,11-dihydrobenzo[b]quinolizinium perchlorate] | 6.29 | IC50 [1]: 53 nM |
| c1ccc2c(c1)CC1C3c4ccccc4C(c4cccc[n+]43)C21c1ccoc1 (stereo not shown) [6(d), 6.11[[2',3']-3'-(3-furyl)indanyl]6,11-dihydrobenzo[b]quinolizinium chloride] | 1.2 | IC50 ([1]; Mus musculus, Cortical neurone): 244 nM |
| c1ccc2c(c1)C1C3CCc4occc4C3(c3ccoc3)C2c2cccc[n+]21 (stereo not shown) [7(b), 6,11[[5',4']-4'-(3-furyl)-4',5',6',7'-tetrahydrobenzofuryl]6,11-dihydrobenzo[b]quinolizinium hexafluorophosphate] | 1.38 | IC50 ([1]; Mus musculus, Cortical neurone): 7.6 nM |
| CCOC1(c2ccoc2)CC2c3ccccc3C1c1cccc[n+]12 (stereo not shown) [11(F), 6,11-ethano-12-(3-furyl)-12-ethoxy-6,11-dihydrobenzo[b]quinolizinium chloride] | 73 | IC50 ([1]; Mus musculus, Cortical neurone): 2550 nM |
| CCOC1(c2ccoc2)CC2c3ccccc3C1c1cccc[n+]12 (stereo not shown) [11(g), 6,11-ethano-12-(3-furyl)-12-ethoxy-6,11-dihydrobenzo[b]quinolizinium chloride] | 18 | IC50 [1]: 2000 nM |
| Oc1cccc2c1C1c3cccc[n+]3C2CC1(c1cc[nH]c1)c1cc[nH]c1 (stereo not shown) [190(b), 6,11-ethano-12,12-di(3-pyrrolyl)-10-hydroxy-6,11-dihydrobenzo[b]quinolizinium chloride] | 10.7 | – |
| Clc1cccc2[n+]1C1CC(c3ccoc3)(c3ccoc3)C2c2ccccc21.[O-][Cl+3]([O-])([O-])[O-] (stereo not shown) [192(g), 6,11-ethano-12,12-di(3-furyl)-4-chloro-6,11-dihydrobenzo[b]-quinolizinium perchlorate] | 633 | – |
| CCCCCCCCOC(=O)CC(C)(C)C(=O)Oc1cccc2c1C1c3cccc[n+]3C2CC1(c1ccoc1)c1ccoc1 (stereo not shown) [194(d), 12,12-di(3-furyl)-10-(OC(O)C(CH3)2 CH2 C(O)OOctyl)-6,11-ethano-6,11-dihydrobenzo[b]quinolizinium chloride] | 71.3 | – |
| Fc1ccc[n+]2c1C1c3ccccc3C2CC1(c1ccoc1)c1ccoc1.[O-][Cl+3]([O-])([O-])[O-] (stereo not shown) [197(d), 6,11-ethano-12,12-di(3-furyl)-1-fluoro-6,11-dihydrobenzo[b]quinolizinium perchlorate] | 13.8 | – |
| Fc1ccc2c(c1)C1c3cccc[n+]3C2CC1(c1cc[nH]n1)c1cc[nH]n1 (stereo not shown) [198(b), 6,11-ethano-12,12-di-(pyrazol-3-yl)]-9-fluoro-6,11-dihydrobenzo-[b]quinolizinium chloride] | 11.7 | – |
| c1ccc(C23c4ccccc4CC2C2c4ccccc4C3c3cccc[n+]32)cc1 (stereo not shown) [Example 1F, 6,11[[2',3']-3'-phenyl-indanyl]6,11-dihydrobenzo[b]quinolizinium hexafluorophosphate] | 7.58 | – |
| c1ccc2c(c1)C1C3CCc4occc4C3(c3cc4ccccc4o3)C2c2cccc[n+]21 (stereo not shown) [Example 10(c), 6,11[[5',4']-4'-(2-benzofuryl)-4',5',6',7'-tetrahydrobenzofuryl]6,11-dihydrobenzo[b]quinolizinium hexafluorophosphate] | 1100 | – |
| CCOC1(c2ccoc2)CC2(C)c3ccccc3C1c1cccc[n+]12.[O-][Cl+3]([O-])([O-])[O-] (stereo not shown) [Example 13(a), 6,11-ethano-12-(3-furyl)-12-ethoxy-6-methyl-6,11-dihydrobenzo[b]quinolizinium perchlorate] | 19 | – |
| CC1C2c3ccccc3C(c3cccc[n+]32)C1(c1ccccc1)c1ccccc1 (stereo not shown) [Example 18, 6,11-ethanol-12,12-diphenyl-13-methyl-6,11-dihydrobenzo[b]quinolizinium perchlorate] | 19.5 | – |
| CC12CC(c3ccccc3)(c3ccccc3)C(c3ccccc31)c1cccc[n+]12 (stereo not shown) [Example 21, 6,11-ethano-12,12-diphenyl-6-methyl-6,11-dihydrobenzo[b]quinolizinium chloride hydrate] | – | Ki (PCP receptor; hydrate): 13 nM |
| COc1cccc2c1C1c3cccc[n+]3C2CC1(c1ccccc1)c1ccccc1 (stereo not shown) [Example 26, 6,11-ethano-12,12-diphenyl-10-methoxy-6,11-dihydrobenzo[b]quinolizinium chloride] | 32.7 | – |
| CCCCCCCC(=O)Oc1cccc2c1C1c3cccc[n+]3C2CC1(c1ccoc1)c1ccoc1 (stereo not shown) [Example 165, 6,11-ethano-12,12-di(3-furyl)-10-octanoyloxy-6,11-dihydrobenzo[b]quinolizinium chloride] | 31.3 | – |
| CCOC(=O)CCC(=O)Oc1cccc2c1C1c3cccc[n+]3C2CC1(c1ccoc1)c1ccoc1 (stereo not shown) [Example 166, 6,11-ethano-12,12-di(3-furyl)-10-(3-ethoxycarbonyl)propionyloxy-6,11-dihydrobenzo-[b]quinolizinium chloride] | 61.1 | – |
| Oc1ccc[n+]2c1C1c3ccccc3C2CC1(c1ccoc1)c1ccoc1 (stereo not shown) [Example 168(c), 6,11-ethano-12,12-di(3-furyl)-1-hydroxy-6,11-dihydrobenzo[b]quinolizinium chloride] | 306 | – |
| CC(=O)Oc1cccc2c1C1c3cccc[n+]3C2CC1(c1ccoc1)c1ccoc1 (stereo not shown) [Example 169, 6,11-ethano-12,12-di(3-furyl)-10-acetyloxy-6,11-dihydrobenzo-[b]quinolizinium chloride] | 3.58 | – |
| CC(=O)Oc1ccc[n+]2c1C1c3ccccc3C2CC1(c1ccoc1)c1ccoc1 (stereo not shown) [Example 170, 6,11-ethano-12,12-di(3-furyl)-1-acetyloxy-6,11-dihydrobenzo-[b]quinolizinium chloride] | 232 | – |
| CCCCCCCCOc1cccc2c1C1c3cccc[n+]3C2CC1(c1ccoc1)c1ccoc1.[O-][Cl+3]([O-])([O-])[O-] (stereo not shown) [Example 172, 6,11-ethano-12,12-di(3-furyl)-10-octyloxy-6,11-dihydrobenzo[b]quinolizinium perchlorate] | 3380 | – |
| CC(C)(C)C(=O)Oc1cccc2c1C1c3cccc[n+]3C2CC1(c1ccoc1)c1ccoc1 (stereo not shown) [Example 174, 6,11-ethano-12,12-di(3-furyl)-10-trimethylacetyloxy-6,11dihydrobenzo-[b]quinolizinium chloride] | 23.7 | – |
| Oc1cccc(C2(c3cccc(O)c3)CC3c4ccccc4C2c2cccc[n+]23)c1.[O-][Cl+3]([O-])([O-])[O-] (stereo not shown) [Example 177, 6,11-ethano-12,12-di(m-hydroxyphenyl)-6,11-dihydrobenzo[b]quinolizinium perchlorate] | 13.8 | – |
| Oc1ccc2[n+](c1)C1CC(c3ccoc3)(c3ccoc3)C2c2ccccc21 (stereo not shown) [Example 191(f), 12,12-di(3-furyl)-3-hydroxy-6,11-ethano-6,11-dihydrobenzo[b]quinolizinium chloride] | 1530 | – |
| Oc1cccc2c1C1c3cccc[n+]3C2CC1(c1ccoc1)c1ccn[nH]1 (stereo not shown) [Example 200, 6,11-ethano-12-(3-furyl)-12-(pyrazol-5-yl)-10-hydroxy-6,11-dihydro-benzo[b]quinolizinium chloride] | 11.5 | – |
